The subject of the assay is T. cruzi-infected H9C2 cardiomyocytes, high-content imaging. As to the kind of experiment: anti-T. cruzi activity in infected cardiomyocytes – imaging, H9C2 host cardiomyocytes, host toxicity (AID 1159565).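 Further: infected cells incubated 72 h after plating.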
Where [1] appears, read: measured here: H9C2 host cell toxicity.
Setting [2] is: measured here: amastigotes per cell.

We go through 28 compounds from PubChem BioAssay AID1159565 (GlaxoSmithKline (GSK), 2015).

Calls of active or inactive are those of the source. How the calls were made is not given here.

Take `O=C(NCC1CCCCC1)c1cnns1`: the IC50 (as a rule, the concentration that gives 50% inhibition) is 3200 nM. In addition, the IC50 under setting [1] is greater than 50000 nM. For the same compound, the IC50 under setting [2] was 2000 nM.
The matching figures for `CCN(Cc1ccncc1)Cc1ccc(NC(=O)c2cc(-c3ccc(F)cc3)n[nH]2)cc1`: 250 nM, greater than 50000 nM and 250 nM.
`COc1cccc(Nc2cc(C)nc(-c3ccccn3)n2)c1`: the IC50 was 13000 nM. This compound also returned an IC50 under setting [1] of 5000 nM. The compound also had a concentration for half-maximal inhibition (IC50) under setting [2] of 7900 nM.
The matching figures for `CS(=O)(=O)c1cccc(CNC(=O)c2cncc(N3CCN(c4ccc(F)cc4)CC3)c2)c1`: 400 nM, greater than 50000 nM and 250 nM.
The matching figures for `NS(=O)(=O)c1ccc(Nc2nccc(-c3cnn4ncccc34)n2)cc1`: 16000 nM, 320 nM and 790 nM.
For the compound `CC(C)c1nn(-c2nc(N)nc(-c3ccccn3)n2)c(N)c1C1CCCCC1`, the IC50 is 1300 nM. This compound returned a concentration for half-maximal inhibition (IC50) under setting [1] of 3200 nM. The IC50 under setting [2] stood at 1300 nM.
As to `O=C(NCc1ccc(Cl)cc1)C1CN(C(=O)c2ccc(F)cc2)CCS1` (centres undefined), the IC50 is 40000 nM. Under setting [1], this compound returned an IC50 greater than 50000 nM. For the same compound, the IC50 under setting [2] was 32000 nM.
The matching figures for `COc1ccc(CN(C)Cc2ccncc2)cc1-c1ccc(S(=O)(=O)NC2CCC2)s1`: 630 nM, 10000 nM and 500 nM.
For `Cc1occc1C(=O)Nc1ccccc1C(=O)Nc1nccs1`, in that order: > 50000 nM (inactive), greater than 50000 nM and 32000 nM.
For `CCN(CC)c1nc(Nc2ccncc2)nc2ccccc12`, in that order: 79 nM, 7900 nM and 5 nM.
As to `Clc1ccc(CN2CCN(C3=NCCN3)CC2)cc1Cl`, the IC50 is 10000 nM. Under setting [1], this compound came in with an IC50 greater than 50000 nM. Further, the IC50 under setting [2] came out at 1000 nM.
For the compound `N#Cc1ccc(Br)cc1[N+](=O)[O-]`, the half-inhibitory concentration (IC50) is 790 nM. The IC50 under setting [1] turned out to be 40000 nM. Under setting [2], this compound came in with a 50% inhibitory concentration (IC50) of 63 nM.
As to `O=C(Nc1nccs1)c1ccccc1Cn1cc([N+](=O)[O-])cn1`, the IC50 is > 50000 nM (inactive). Under setting [1], this compound gave an IC50 greater than 50000 nM. For the same compound, the IC50 under setting [2] was greater than 50000 nM.
On to `COc1ccc(-c2csc(NC(=O)c3ccc([N+](=O)[O-])s3)n2)cc1`, for which the IC50 is 250 nM. Moreover, under setting [1], the IC50 turned out to be 32000 nM. This compound also showed an IC50 under setting [2] of 200 nM.
For the compound `Cc1c(C#N)c([N+](=O)[O-])nn1Cc1cccc(Cl)c1Cl`, the IC50 is 100 nM. Besides, under setting [1], the IC50 was greater than 50000 nM. Moreover, the IC50 under setting [2] is 40 nM.
The matching figures for `COc1ccc(CNc2nsc3ccccc23)cc1OC`: 25000 nM, greater than 50000 nM and 20000 nM.
For `Cn1ccnc1CN1CCc2[nH]cnc2C1c1ccccc1OCc1ccccc1` (centres undefined), in that order: > 50000 nM (inactive), greater than 50000 nM and greater than 50000 nM.
For `COc1ccc(CN2C(=O)C(O)(CC(=O)c3ccncc3)c3cc(Br)ccc32)cc1OC` (centres undefined), in that order: 25000 nM, 2000 nM and 13000 nM.
As for `COc1cc(F)c2ncc(F)c(CCN3CC[C@H](NCc4cc5c(cn4)OCS5)[C@@H](O)C3)c2c1`, the IC50 was 250 nM. The IC50 under setting [1] is greater than 50000 nM. Also, the 50% inhibitory concentration (IC50) under setting [2] was found to be 200 nM.
For `O=S1N=C(NCCCN(Cc2ccc(F)cc2)c2ccccn2)C(NCc2ccncc2)=N1` (centres undefined), in that order: 50000 nM, greater than 50000 nM and 40000 nM.
On to `C[C@@H](Oc1cc(-n2cnc3cc(N)ccc32)sc1C(N)=O)c1ccccc1Cl`, for which the IC50 was 20000 nM. Under setting [1], this compound displayed a half-inhibitory concentration (IC50) of 1000 nM. Also, the IC50 under setting [2] came out at 5000 nM.
Consider `COCc1cc(Nc2ccccc2)nc(-c2ccccn2)n1`, for which the IC50 is 25000 nM. The compound also registered a concentration for half-maximal inhibition (IC50) under setting [1] of 4000 nM. The compound further had a concentration for half-maximal inhibition (IC50) under setting [2] of 13000 nM.
On to `O=C(NCCc1cccnc1)c1ccc(-c2ccccc2F)o1`, for which the IC50 is 200 nM. Further, under setting [1], the IC50 is greater than 50000 nM. Besides, the IC50 under setting [2] came out at 200 nM.
`Cc1ccccc1CNc1cc(C2CC2)nc(-c2nccn2C)n1`: the half-inhibitory concentration (IC50) is 790 nM. In addition, the IC50 under setting [1] was 790 nM. Also, the IC50 under setting [2] was 790 nM.
Turning to `O=C(CSc1ccc(F)cc1)N[C@@H](Cc1cnc[nH]1)C(=O)NCCc1ccccc1`, the IC50 was 500 nM. Moreover, the IC50 under setting [1] is greater than 50000 nM. Under setting [2], this compound came in with an IC50 of 500 nM.
As for `O=c1ccc2ccc(F)c3c2n1C[C@H]3CN1CCN(CC(O)c2cc3c(cn2)OCS3)CC1` (some centres undefined), the IC50 was 630 nM. The compound further gave a half-inhibitory concentration (IC50) under setting [1] greater than 50000 nM. The same compound yielded an IC50 under setting [2] of 320 nM.
The matching figures for `CC(=O)Nc1ccc(-c2csc(NC(=O)c3ccc([N+](=O)[O-])s3)n2)cc1`: 130 nM, 5000 nM and 100 nM.
`Nc1nc(-c2ccccc2)cc(-c2nc3ncccc3[nH]2)n1`: the IC50 is 2000 nM. For the same compound, the IC50 under setting [1] is 13000 nM. Further, the IC50 under setting [2] was 1600 nM.
